From patent US20080031894A1, “Beta acid based protein kinase modulation cancer treatment” (Metaproteomics, LLC, priority 2006, published 2008)
Marks after values point to notes of the source that are not given here.

Experiments:
[1] = Non-fasting serum glucose and insulin in db/db diabetic mice, three days; format: in vivo, mouse; conditions: three consecutive days by gavage
Protocol: The Model—Male, C57BLKS/J m^+/m^+ Lepr^db (db/db) mice were used to assess the potential of the test materials to reduce fasting serum glucose or insulin concentrations. This strain of mice is resistant to leptin by virtue of the absence of a functioning leptin receptor.
Testing Procedure—Test substances were administered daily by gavage in 0.2% Tween-80. Serum was collected from the retroorbital sinus before the initial dose and ninety minutes after the third and final dose. Non-fasting serum glucose was determined enzymatically by the mutarotase/glucose oxidase method and serum insulin was determined by a mouse specific ELISA.

adiponectin secretion [2] = test: Adiponectin secretion in LPS/3T3-L1 adipocytes; format: cell-based, murine; conditions: LPS 100 ng/ml; for adiponectin secretion, in words: any of the doses tested
adiponectin secretion [3] = test: Adiponectin secretion from TNFα-treated 3T3-L1 adipocytes; format: cell-based, murine; conditions: for maximum increase of adiponectin secretion from the TNFα control: 10 ng/ml TNFα
Protocol: 3T3-L1 cells were seeded at an initial density of 1×10^4 cells/cm^2 in 96-well plates. For two days, the cells were allowed grow to reach confluence. Following confluence, the cells were forced to differentiate into adipocytes by the addition of differentiation medium; this medium consisted of (1) 10% FBS/DMEM (high glucose); (2) 0.5 mM methylisobutylxanthine; (3) 0.5 μM dexamethasone and (4) 10 μg/ml insulin (MDI medium). From Day 3 through Day 5, the medium was changed to post-differentiation medium consisting of 10% FBS in DMEM. […] On Day 6, the supernatant medium was sampled for adiponectin determination.
(§1) Adiponectin Assay—The adiponectin secreted into the medium was quantified using the Mouse Adiponectin Quantikine® Immunoassay kit with no modifications (R&D Systems, Minneapolis, Minn.).
Statistical Calculations and Interpretation—All assays were preformed in duplicate. […] Differences among the doses and test agents were determined using the Student's t-test without correction for multiple comparisons; the nominal five percent probability of a type I error was selected.

adiponectin secretion [4] = test: Adiponectin secretion from insulin-resistant 3T3-L1 adipocytes; format: cell-based, murine
Protocol: 3T3-L1 cells were seeded at an initial density of 1×10^4 cells/cm^2 in 96-well plates. For two days, the cells were allowed grow to reach confluence. Following confluence, the cells were forced to differentiate into adipocytes by the addition of differentiation medium; this medium consisted of (1) 10% FBS/DMEM (high glucose); (2) 0.5 mM methylisobutylxanthine; (3) 0.5 μM dexamethasone and (4) 10 μg/ml insulin (MDI medium). From Day 3 through Day 5, the medium was changed to post-differentiation medium consisting of 10 μg/ml insulin in 10% FBS/DMEM.
Briefly, on Day 6, cells were maintained in serum-free media containing 0.5% bovine serum albumin (BSA) for three hours and then treated with 1 μg insulin/ml plus solvent or insulin plus test material. […] Twenty-four hours later, the supernatant medium was sampled for adiponectin determination.
as §1
Statistical Calculations and Interpretation—All assays were preformed in duplicate. […] Differences between the doses were determined using the student's t-test without correction for multiple comparisons; the nominal five percent probability of a type I error was selected. […]

[5] = tested on: human PI3K-β, PI3K-γ, and PI3K-δ; test: Effect of hops components on PI3K activity (FIG. 3); format: biochemical; conditions: 50 μg/ml
Protocol: Additionally examined was an Acacia nilotica heartwood extract. All compounds were tested at 50 μg/ml. The results are presented graphically as FIG. 3.

IL-6 = test: Serum IL-6 in collagen induced arthritis murine model; format: in vivo, mouse; conditions: 10 mg/kg
PGE2 biosynthesis = PGE2 biosynthesis in A549 pulmonary epithelial cells stimulated by mite dust allergen; format: cell-based, human; conditions: 10 μg/ml, added 60 minutes prior to mite dust allergen
From the text: Mite dust allergen isolation—Dermatophagoides farinae is the American house dust mite. D. farinae were raised on a 1:1 ratio of Purina Laboratory Chow (Ralston Purina, Co, St. Louis, Mo.) and Fleischmann's granulated dry yeast (Standard Brands, Inc. New York, N.Y.) at room temperature and 75% humidity. Live mites were aspirated from the culture container as they migrated from the medium, killed by freezing, desiccated and stored at 0% humidity. The allergenic component of the mite dust was extracted with water at ambient temperature. Five-hundred mg of mite powder were added to 5 ml of water (1:10 w/v) in a 15 ml conical centrifuge tube (VWR, Rochester, N.Y.), shaken for one minute and allowed to stand overnight at ambient temperature. The next day, the aqueous phase was filtered using a 0.2 μm disposable syringe filter (Nalgene, Rochester, N.Y.). The filtrate was termed mite dust allergen and used to test for induction of PGE2 biosynthesis in A549 pulmonary epithelial cells.
Cell culture and treatment—The human airway epithelial cell line, A549 (American Type Culture Collection, Bethesda, Md.) was cultured and treated as previously described in Example 6. Mite allergen was added to the culture medium to achieve a final concentration of 1000 ng/ml. Eighteen hours later, the media were sampled for PGE2 determination.

CN(C)C(=N)N=C(N)N [metformin]
serum glucose, in words [1]: decreased

COc1ccc2c(c1)c(CC(=O)O)c(C)n2C(=O)c1ccc(Cl)cc1 [Indomethacin]
Maximum adiponectin stimulation (adiponectin secretion [2]; […]): 9%

CC(C)Cc1ccc(C(C)C(=O)O)cc1 (stereo not drawn) [ibuprofen]
Maximum adiponectin stimulation (adiponectin secretion [2]; 0.625 μg/ml): 22%

Cc1c(C)c2c(c(C)c1O)CCC(C)(COc1ccc(CC3SC(=O)NC3=O)cc1)O2 (stereo not drawn) [Troglitazone]
Maximum adiponectin stimulation (adiponectin secretion [2]; 0.625 μg/ml): 15% | maximum increase of adiponectin secretion from the TNFα control (adiponectin secretion [3]): 51%

CC(C)CCC1=C(O)C(C(=O)C(C)C)=C(O)C(CCC(C)C)(CCC(C)C)C1=O [hexahydrocolupulone]
concentration required for half maximal adiponectin secretion (adiponectin secretion [4]; Hofstee plot slope): 3.2 µg/mL

CC(C)CCC1=C(O)C(C(=O)C(C)C)=C(O)C(CCC(C)C)(CCC(C)C)C1=O [Hexahydro-colupulone (HHCL)]
Adiponectin/IL-6 (adiponectin secretion [4]; 50.0 μg/ml, ratio of indexes (Table 21)): 0.60#

O=C(O)c1ccccc1O [salicylic acid]
adiponectin secretion, in words (adiponectin secretion [2]): failed to induce adiponectin secretion

CCc1ccc(CCOc2ccc(CC3SC(=O)NC3=O)cc2)nc1 (stereo not drawn) [Pioglitazone]
Maximum adiponectin stimulation (adiponectin secretion [2]; […]): 12% | Adiponectin Index (relative maximum) (adiponectin secretion [3]; 10 ng TNFα/ml, [Adiponectin]Test/[Adiponectin]TNFα control): 1.47 | maximum increase of adiponectin secretion from the TNFα control (adiponectin secretion [3]): 80% | Adiponectin Index Observed (adiponectin secretion [3]; 1.0 μg/ml, indexed to TNFα control (Table 26)): 1.80

COc1cc(O)c(CC=C(C)C)c(O)c1C(=O)/C=C/c1ccc(O)cc1 [xanthohumol]
PI3K isoform effect, in words [5]: more inhibitory to PI3K-γ than to PI3K-β or PI3K-δ | serum glucose, in words [1]: reduction in serum glucose | serum insulin, in words [1]: no effect on insulin

C[C@]12C=CC(=O)C=C1CC[C@@H]1[C@@H]2[C@@H](O)C[C@@]2(C)[C@H]1CC[C@]2(O)C(=O)CO [prednisolone]
serum IL-6 levels, in words (IL-6): reached a statistical significance

CC(=O)Oc1ccccc1C(=O)O [Aspirin]
adiponectin secretion, in words (adiponectin secretion [2]): failed to induce adiponectin secretion

Beta acids
Percent PGE2 Inhibition (PGE2 biosynthesis): 83%
